According to patent US8710038B2, “Pyrazole kinase modulators and methods of use” (Exelixis, Inc., priority 2004, dated 2014):

Assays:
c-Kit = c-Kit (Homo sapiens, UniProt P10721); test: c-Kit biochemical assay (AlphaScreen)
Excerpt: (§1) AlphaScreen technology is a proximity assay which utilizes the increase in fluorescent signal occurring when donor and acceptor beads are close in proximity. Biotinylated poly(Glu,Tyr) 4:1 is used as the kinase substrate, in conjunction with streptavidin-coated donor beads and anti-phosphortyrosine antibody PY100-coated acceptor beads. Upon phosphorylation, the peptide substrate can bind to both donor and acceptor beads giving rise to an increase in fluorescence. Compounds, ATP, biotinylated poly(Glu, Tyr) and kinases are mixed in a volume of 20 uL for 1 hr at ambient temperature using Greiner 384-well white clear bottom medium binding plates. Following incubation a 10 uL solution containing […] AlphaScreen beads, 75 mM Hepes, pH 7.4, 300 mM NaCl, 120 mM EDTA, 0.3% BSA and 0.03% Tween-20 is added to each well. After 2-16 hr incubation of the beads, plates are read in a Perkin Elmer AlphaQuest reader. The IC50 values correlates well with those of radiometric assays.
c-Kit biochemical activity was assessed using AlphaScreen™ (Perkin Elmer) technology, described above. Test compounds, ATP, biotinylated poly(Glu, Tyr) and c-Kit kinase were combined in a volume of 20 μL in a 384-well white, medium binding microtiter plate (Greiner). Reaction mixtures were incubated for 1 hr at ambient temperature. Reactions were quenched by addition of 10 uL of […] AlphaScreen bead suspension containing 75 mM Hepes, pH 7.4, 300 mM NaCl, 120 mM EDTA, 0.3% BSA and 0.03% Tween-20. After 16 hr incubation at ambient temperature plates were read using an AlphaQuest reader (Perkin Elmer).

EphB4 = target: T1, EphB4 (Homo sapiens, UniProt P54760); test: EphB4 kinase inhibition assay; type: biochemical
T1 sequence (P54760 16-987): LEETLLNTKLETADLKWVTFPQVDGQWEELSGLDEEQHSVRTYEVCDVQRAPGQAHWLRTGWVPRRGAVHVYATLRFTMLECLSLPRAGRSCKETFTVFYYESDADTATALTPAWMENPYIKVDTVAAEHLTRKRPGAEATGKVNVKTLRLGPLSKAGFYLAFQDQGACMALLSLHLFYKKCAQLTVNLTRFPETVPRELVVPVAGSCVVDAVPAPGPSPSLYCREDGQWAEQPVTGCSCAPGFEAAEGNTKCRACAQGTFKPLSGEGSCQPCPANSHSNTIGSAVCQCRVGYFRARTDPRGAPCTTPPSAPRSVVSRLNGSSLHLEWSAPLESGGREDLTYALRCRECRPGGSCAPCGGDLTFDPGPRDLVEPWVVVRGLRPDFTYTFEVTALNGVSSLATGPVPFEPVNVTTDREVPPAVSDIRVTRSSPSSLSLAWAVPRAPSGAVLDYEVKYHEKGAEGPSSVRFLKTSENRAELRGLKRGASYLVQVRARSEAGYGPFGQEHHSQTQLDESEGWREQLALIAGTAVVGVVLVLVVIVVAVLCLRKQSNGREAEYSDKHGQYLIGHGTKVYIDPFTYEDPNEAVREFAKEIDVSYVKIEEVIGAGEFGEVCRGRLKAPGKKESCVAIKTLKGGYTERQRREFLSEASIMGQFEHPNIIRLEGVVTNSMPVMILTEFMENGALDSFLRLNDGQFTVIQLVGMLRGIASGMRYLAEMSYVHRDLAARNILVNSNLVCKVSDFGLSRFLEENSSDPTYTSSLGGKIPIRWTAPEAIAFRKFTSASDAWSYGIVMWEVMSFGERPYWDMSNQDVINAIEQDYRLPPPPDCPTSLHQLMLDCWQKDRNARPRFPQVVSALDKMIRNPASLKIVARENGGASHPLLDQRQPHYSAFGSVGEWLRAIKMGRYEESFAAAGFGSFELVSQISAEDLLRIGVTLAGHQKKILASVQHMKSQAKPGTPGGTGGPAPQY
Method: (§2) Kinase activity and compound inhibition are investigated using one or more of the three assay formats described below. The ATP concentrations for each assay are selected to be close to the Michaelis-Menten constant (KM) for each individual kinase. Dose-response experiments are performed at 10 different inhibitor concentrations in a 384-well plate format. The data are fitted to four-parameter equation (2) below; where Y is the observed signal, X is the inhibitor concentration, Min is the background signal in the absence of enzyme (0% enzyme activity), Max is the signal in the absence of inhibitor (100% enzyme activity), IC50 is the inhibitor concentration at 50% enzyme inhibition and H represents the empirical Hill's slope to measure the cooperativity. Typically H is close to unity. Y=Min+(Max−Min)/(1+(X/IC50)^H) Equation (2) ^33P Phosphoryl Transfer Assay: […]
(§3) Greiner 384-well white, clear bottom, high binding plates are coated with 2 μg/well of protein or peptide substrate in a 50 μL volume overnight at ambient temperature. The coating buffer typically contains 40 μg/mL substrate, 22.5 mM Na2CO3, 27.5 mM NaHCO3, 150 mM NaCl and 3 mM NaN3. The coating solution is aspirated and the plates are washed once with 50 μL of assay buffer and padded dry. Subsequently compounds and enzymes are mixed with γ^33P-ATP (3.3 μCi/nmol) in a total volume of 20 uL in suitable assay buffers. The mixture is incubated at ambient temperature for 1.5-2.5 hrs and terminated by aspiration using a Molecular Devices EMBLA 96-head plate washer. The plates are subsequently washed 6-12 times with PBST or TBS buffer. Scintillation fluid (50 μl/well) is then added, the plates are sealed and activity assessed by liquid scintillation spectrometry using a Perkin Elmer MicroBeta TriLux.
(§4) In the LCCA assays, kinase activity is measured as the percent ATP consumed following the kinase reaction using luciferase-luciferin-coupled chemiluminescence. Greiner 384-well white, clear bottom, medium-binding plates are used for LCCA. Briefly, the kinase reaction is initiated by mixing compounds, ATP and kinase in a 20 uL volume. The mixture is incubated at ambient temperature for 2-4 hrs. At the end of the kinase reaction, a 20 uL luciferase-luciferin mix is added and the chemiluminescent signal is read using a Wallac Victor^2 reader. The luciferase-luciferin mix consists of 50 mM HEPES, pH 7.8, 8.5 ug/mL oxalic acid (pH 7.8), 5 (or 50) mM DTT, 0.4% Triton X-100, 0.25 mg/mL coenzyme A, 63 uM AMP, 28 ug/mL luciferin and 40,000 units of light/mL luciferase. For the LCCA assays, total ATP consumption has been standardized to 25-45% and the IC50 values correlates well with those determined by radiometric assays.
as §1

EGFR = EGFR (Homo sapiens, UniProt P00533); test: EGFR kinase inhibition assay; type: biochemical
EGFR, sequence (P00533 25-1210, species assumed): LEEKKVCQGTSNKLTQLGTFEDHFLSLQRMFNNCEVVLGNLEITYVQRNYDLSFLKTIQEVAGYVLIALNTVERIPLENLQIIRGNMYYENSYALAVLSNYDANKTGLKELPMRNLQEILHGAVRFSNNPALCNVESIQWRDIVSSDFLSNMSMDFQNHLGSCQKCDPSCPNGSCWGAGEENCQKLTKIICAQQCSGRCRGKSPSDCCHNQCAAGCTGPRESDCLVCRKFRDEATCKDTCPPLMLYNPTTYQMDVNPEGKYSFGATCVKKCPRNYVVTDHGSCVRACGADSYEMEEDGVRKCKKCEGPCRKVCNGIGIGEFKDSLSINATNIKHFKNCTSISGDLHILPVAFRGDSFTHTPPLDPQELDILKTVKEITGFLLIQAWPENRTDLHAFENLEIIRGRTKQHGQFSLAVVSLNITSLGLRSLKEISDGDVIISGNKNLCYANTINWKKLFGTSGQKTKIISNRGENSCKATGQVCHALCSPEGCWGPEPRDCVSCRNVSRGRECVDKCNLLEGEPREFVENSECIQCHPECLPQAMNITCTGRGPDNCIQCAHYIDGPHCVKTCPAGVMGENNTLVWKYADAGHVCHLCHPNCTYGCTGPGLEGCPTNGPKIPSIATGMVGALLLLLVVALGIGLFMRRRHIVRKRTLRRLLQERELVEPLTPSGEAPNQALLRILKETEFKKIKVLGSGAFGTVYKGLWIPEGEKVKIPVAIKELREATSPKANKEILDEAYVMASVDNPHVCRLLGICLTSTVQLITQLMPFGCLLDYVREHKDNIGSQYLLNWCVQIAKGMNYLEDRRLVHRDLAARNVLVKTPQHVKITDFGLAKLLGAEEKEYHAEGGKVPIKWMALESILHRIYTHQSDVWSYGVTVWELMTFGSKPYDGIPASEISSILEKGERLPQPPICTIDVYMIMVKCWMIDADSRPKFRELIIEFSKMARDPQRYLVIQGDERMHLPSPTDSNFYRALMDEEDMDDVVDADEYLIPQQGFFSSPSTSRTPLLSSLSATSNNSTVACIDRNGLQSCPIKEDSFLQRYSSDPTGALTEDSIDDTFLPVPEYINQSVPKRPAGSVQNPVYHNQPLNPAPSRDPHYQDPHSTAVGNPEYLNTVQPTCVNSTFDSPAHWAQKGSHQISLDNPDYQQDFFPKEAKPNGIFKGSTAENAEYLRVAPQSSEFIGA
Method: as §2, §3, §4, §1

flt-3 = target: T2, flt-3 (Homo sapiens, UniProt P36888); test: flt-3 Luciferase-Coupled Chemiluminescent Kinase assay (LCCA); type: biochemical
T2 construct: baculovirus expressed human Flt-3 kinase domain R571-S993
T2 sequence (P36888 571-993): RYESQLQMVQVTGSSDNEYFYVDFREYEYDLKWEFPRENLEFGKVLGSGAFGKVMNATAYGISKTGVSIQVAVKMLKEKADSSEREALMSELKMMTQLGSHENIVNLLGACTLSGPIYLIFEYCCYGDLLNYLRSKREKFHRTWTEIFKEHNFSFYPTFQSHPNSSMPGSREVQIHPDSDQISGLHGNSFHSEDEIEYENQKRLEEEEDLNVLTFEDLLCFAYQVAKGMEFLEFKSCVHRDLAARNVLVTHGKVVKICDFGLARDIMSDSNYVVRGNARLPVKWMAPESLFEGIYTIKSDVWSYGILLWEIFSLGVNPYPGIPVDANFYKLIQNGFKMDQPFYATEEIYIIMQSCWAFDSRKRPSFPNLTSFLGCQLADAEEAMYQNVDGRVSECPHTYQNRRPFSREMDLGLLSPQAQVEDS
Method: as §4
Flt-3 biochemical activity was assessed using a Luciferase-Coupled Chemiluminescent Kinase assay (LCCA) format. Kinase activity was measured as the percent ATP remaining following the kinase reaction. Remaining ATP was detected by luciferase-luciferin-coupled chemiluminescence. Specifically, the reaction was initiated by mixing test compounds, 5 μM ATP, 3 μM poly-EY and 5 nM Flt-3 (baculovirus expressed human Flt-3 kinase domain R571-S993) in a 20 uL assay buffer (20 mM Tris-HCL pH7.5, 10 mM MgCl2, 0.01% Triton X-100, 1 mM DTT, 2 mM MnCl2). The mixture is incubated at ambient temperature for 3 hours after which 20 uL luciferase-luciferin mix is added and the chemiluminescent signal read using a Wallac Victor^2 reader. The luciferase-luciferin mix consists of 50 mM HEPES, pH 7.8, 8.5 ug/mL oxalic acid (pH 7.8), 5 (or 50) mM DTT, 0.4% Triton X-100, 0.25 mg/mL coenzyme A, 63 uM AMP, 28 ug/mL luciferin and 40,000 units of light/mL luciferase.

c-Kit, sequence (P10721 26-976): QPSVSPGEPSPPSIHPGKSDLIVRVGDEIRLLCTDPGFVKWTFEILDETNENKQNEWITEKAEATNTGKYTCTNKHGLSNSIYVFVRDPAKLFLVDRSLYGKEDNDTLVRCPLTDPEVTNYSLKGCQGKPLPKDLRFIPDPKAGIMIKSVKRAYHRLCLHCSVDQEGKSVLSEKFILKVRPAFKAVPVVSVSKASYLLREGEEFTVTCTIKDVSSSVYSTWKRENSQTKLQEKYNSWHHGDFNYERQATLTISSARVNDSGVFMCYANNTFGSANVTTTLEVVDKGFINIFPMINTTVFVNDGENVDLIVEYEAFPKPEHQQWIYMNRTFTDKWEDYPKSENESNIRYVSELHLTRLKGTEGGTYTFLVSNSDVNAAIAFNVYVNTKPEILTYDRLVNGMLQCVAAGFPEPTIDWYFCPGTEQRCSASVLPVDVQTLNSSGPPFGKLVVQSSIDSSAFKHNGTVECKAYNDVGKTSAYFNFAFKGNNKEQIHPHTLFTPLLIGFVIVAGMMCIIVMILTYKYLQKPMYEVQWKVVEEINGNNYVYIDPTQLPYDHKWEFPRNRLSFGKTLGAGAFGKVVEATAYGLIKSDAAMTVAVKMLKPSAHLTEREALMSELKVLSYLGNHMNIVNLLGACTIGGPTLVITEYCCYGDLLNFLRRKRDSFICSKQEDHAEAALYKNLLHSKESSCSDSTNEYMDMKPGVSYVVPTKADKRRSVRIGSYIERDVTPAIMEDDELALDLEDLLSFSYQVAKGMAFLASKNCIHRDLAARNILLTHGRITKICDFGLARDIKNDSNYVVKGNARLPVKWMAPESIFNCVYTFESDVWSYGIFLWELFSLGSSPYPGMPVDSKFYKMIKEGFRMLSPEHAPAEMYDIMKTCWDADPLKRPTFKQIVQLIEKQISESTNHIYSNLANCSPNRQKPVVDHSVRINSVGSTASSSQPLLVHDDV

Row | SMILES | IC50 (c-Kit) [nM] | IC50 (EphB4) [nM] | IC50 (EGFR) [nM] | IC50 (flt-3) [nM]
1 | CC(=O)c1cccc(NC(=O)Nc2ccc(-c3cc(-c4nc5cc(N6CCN(C)CC6)ccc5[nH]4)n[nH]3)cc2)c1 [Entry 5, N-(3-acetylphenyl)-N′-(4-{3-[5-(4-methylpiperazin-1-yl)-1H-benzimidazol-2-yl]-1H-pyrazol-5-yl}phenyl)urea] | < 50 | 500 to 5000 | > 5000 | < 50
2 | CN1CCN(c2ccc3[nH]c(-c4cc(-c5ccc(NC(=O)Nc6ccc(Cl)c(Cl)c6)cc5)[nH]n4)nc3c2)CC1 [Entry 6, N-(3,4-dichlorophenyl)-N′-(4-{3-[5-(4-methylpiperazin-1-yl)-1H-benzimidazol-2-l]-1H-pyrazol-5-yl}phenyl)urea] | < 50 | > 5000 | > 5000 | < 50
3 | CN1CCN(c2ccc3nc(-c4cc(-c5ccc(NC(=O)Nc6cccc(Br)c6)cc5)[nH]n4)[nH]c3c2)CC1 [Entry 7, N-(3-bromophenyl)-N′-(4-{3-[6-(4-methylpiperazin-1-yl)-1H-benzimidazol-2-yl]-1H-pyrazol-5-yl}phenyl)urea] | < 50 | > 5000 | > 5000 | < 50
4 | CN1CCN(c2ccc3[nH]c(-c4cc(-c5ccc(NC(=O)Nc6ccc(F)c(C(F)(F)F)c6)cc5)[nH]n4)nc3c2)CC1 [Entry 8, N-[4-fluoro-3-(trifluoromethyl)phenyl]-N′-(4-{3-[5-(4-methylpiperazin-1-yl)-1H-benzimidazol-2-yl]-1H-pyrazol-5-yl}phenyl)urea] | < 50 | > 5000 | > 5000 | < 50
5 | CN1CCN(c2ccc3[nH]c(-c4cc(-c5ccc(NC(=O)Nc6ccc(Oc7ccccc7)cc6)cc5)[nH]n4)nc3c2)CC1 [Entry 9, N-(4-{3-[5-(4-methylpiperazin-1-yl)-1H-benzimidazol-2-yl]-1H-pyrazol-5-yl}phenyl)-N′-[4-(phenyloxy)phenyl]urea] | < 50 | > 5000 | > 5000 | < 50
6 | CN1CCN(c2ccc3[nH]c(-c4cc(-c5ccc(NC(=O)Nc6cccc(Cl)c6)cc5)[nH]n4)nc3c2)CC1 [Entry 10, N-(3-chlorophenyl)-N′-(4-{3-[5-(4-methylpiperazin-1-yl)-1H-benzimidazol-2-yl]-1H-pyrazol-yl}phenyl)urea] | < 50 | > 5000 | – | < 50
7 | O=C(Nc1ccccc1)Nc1ccc(-c2cc(-c3nc4ccccc4[nH]3)n[nH]2)cc1 [Entry 33, N-{4-[3-(1H-benzimidazol-2-yl)-1H-pyrazol-5-yl]phenyl}-N′-phenylurea] | < 50 | > 5000 | > 5000 | –

Now from value to compound:

Row | IC50 (c-Kit) [nM] | IC50 (EphB4) [nM] | IC50 (EGFR) [nM] | IC50 (flt-3) [nM] | SMILES
8 | < 50 | 500 to 5000 | > 5000 | < 50 | CN1CCN(c2ccc3nc(-c4cc(/C=C/c5ccc(O)cc5)[nH]n4)[nH]c3c2)CC1 [Entry 1, 4-((E)-2-{3-[6-(4-methylpiperazin-1-yl)-1H-benzimidazol-2-yl]-1H-pyrazol-5-yl}ethenyl)phenol]
9 | < 50 | > 5000 | > 5000 | < 50 | CCN1CCN(c2ccc3[nH]c(-c4cc(-c5ccc(NC(=O)Nc6ccc(Cl)c(C(F)(F)F)c6)cc5)[nH]n4)nc3c2)CC1 [Entry 2, N-[4-chloro-3-(trifluoromethyl)phenyl]-N′-(4-{3-[5-(4-ethylpiperazin-1-yl)-1H-benzimidazol-2-yl]-1H-pyrazol-5-yl}phenyl)urea]
10 | < 50 | 500 to 5000 | > 5000 | < 50 | CCc1cccc(NC(=O)Nc2ccc(-c3cc(-c4nc5cc(N6CCN(CC)CC6)ccc5[nH]4)n[nH]3)cc2)c1 [Entry 3, N-(3-ethylphenyl)-N′-(4-{3-[5-(4-ethylpiperazin-1-yl)-1H-benzimidazol-2-yl]-1H-pyrazol-5-yl}phenyl)urea]
11 | < 50 | 500 to 5000 | > 5000 | < 50 | CCN1CCN(c2ccc3[nH]c(-c4cc(-c5ccc(NC(=O)Nc6cccc(C(F)(F)F)c6)cc5)[nH]n4)nc3c2)CC1 [Entry 4, N-(4-{3-[5-(4-ethylpiperazin-1-yl)-1H-benzimidazol-2-yl]-1H-pyrazol-5-yl}phenyl)-N′-[3-(trifluoromethyl)phenyl]urea]
